Experiments:
[1] = target: T1, Ba/F3 cell EGFR L858R/T790M (Homo sapiens, UniProt P00533, L858R/T790M); test: Ba/F3 cell proliferation suppression, EGFR L858R/T790M; type: cell-based; settings: 72 hours after treatment, CellTiter-Glo
T1 construct: expressed in transfected cells; host or cells: Ba/F3
Experimental: (§1) The following experiment was carried out to evaluate the suppression activity of the compounds according to the present invention against proliferation of Ba/F3 and lung cancer cells which express EGFR mutations.
(§2) Of the cancer cell lines expressing the EGFR gene, A549 was cultured after adding 10% FBS (HyClone) to DMEM (Invitrogen), and RPMI-1640 (Invitrogen) with 10% FBS was used for the other cancer cells. For the Ba/F3 cells, RPMI-1640 with 10% FBS and 5 ng/ml IL-3 (R&D Systems) was used. The transduced Ba/F3 cells were cultured by adding 1 ug/ml puromycin (Invitrogen) to the same medium.
(§3) 24 hours before treatment with the compounds, 3000 to 5000 cells were distributed into each well of a white clear bottom 96 well plate (Corning). The compounds were diluted in dimethylsulfoxide (dilution ratio 3:1; 12 concentrations total) and injected 0.5 ul each for a final concentration of 0.3 nM to 50 um. As for measurement of live cells, 72 hours after treatment with the compounds, a CellTiter-Glo luminescent cell-viability reagent (Promega) was used to store the cells at room temperature for 10 minutes, followed by measurement of luminescence using a reader (SynergyNeo, Biotek). Each test was repeated three times.
(§4) The result was calculated as a cell growth ratio (%) compared to a control. The program GraphPad Prism version 5.0 was used to draw the graphs and calculate the GI50 values.

[2] = test system: Ba/F3 cell EGFR Del19/T790M; test: Ba/F3 cell proliferation suppression, EGFR Del19/T790M; type: cell-based; settings: 72 hours after treatment, CellTiter-Glo
Experimental: as §1, §2, §3, §4

Ba/F3 cell EGFR L858R = target: T2, Ba/F3 cell EGFR L858R (Homo sapiens, UniProt P00533, L858R); test: Ba/F3 cell proliferation suppression, EGFR L858R; type: cell-based; settings: 72 hours after treatment, CellTiter-Glo
T2 construct: expressed in transfected cells; host or cells: Ba/F3
Experimental: as §1, §2, §3, §4

[3] = target: T3, Ba/F3 cell EGFR Exon20 ins NPH (Homo sapiens, UniProt P00533, INS773NPH); test: Ba/F3 cell proliferation suppression, EGFR Exon20 ins NPH; type: cell-based; settings: for GI50: 72 hours after treatment, CellTiter-Glo; for Ba/F3 (NPH) Activity: GI50 class, Ba/F3 cell line with NPH inserted at Exon20 of EGFR, 72 hours
T3 construct: expressed in transfected cells; host or cells: Ba/F3
How it was run: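 72 h compound exposure, 0.3 nM–50 um (12 points, 3:1 dilution in DMSO); viability by CellTiter-Glo luminescence. Ba/F3 medium: RPMI-1640, 10% FBS, 5 ng/ml IL-3, 1 ug/ml puromycin for transduced cells. GI50 vs control, n=3.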

[4] = target: T4, Ba/F3 cell EGFR Exon20 ins SVD (Homo sapiens, UniProt P00533, INS770SVD); test: Ba/F3 cell proliferation suppression, EGFR Exon20 ins SVD; type: cell-based; settings: 72 hours after treatment, CellTiter-Glo
T4 construct: expressed in transfected cells; host or cells: Ba/F3
Experimental: as §1, §2, §3, §4

[5] = target: T5, Ba/F3 cell EGFR Exon20 ins FQEA (Homo sapiens, UniProt P00533, INS763FQEA); test: Ba/F3 cell proliferation suppression, EGFR Exon20 ins FQEA; type: cell-based; settings: 72 hours after treatment, CellTiter-Glo
T5 construct: expressed in transfected cells; host or cells: Ba/F3
Experimental: as §1, §2, §3, §4

[6] = target: T6, Ba/F3 cell EGFR Exon20 ins ASV (Homo sapiens, UniProt P00533, INS769ASV); test: Ba/F3 cell proliferation suppression, EGFR Exon20 ins ASV; type: cell-based; settings: 72 hours after treatment, CellTiter-Glo
T6 construct: expressed in transfected cells; host or cells: Ba/F3
Experimental: as §1, §2, §3, §4

[7] = target: T7, Ba/F3 cell HER2 Exon20 ins YVMA (Homo sapiens, UniProt P04626, INS775YVMA); test: Ba/F3 cell proliferation suppression, HER2 Exon20 ins YVMA; type: cell-based; settings: 72 hours after treatment, CellTiter-Glo
T7 construct: expressed in transfected cells; host or cells: Ba/F3
T7 sequence (P04626 with tags, fused parts or gaps INS775YVMA): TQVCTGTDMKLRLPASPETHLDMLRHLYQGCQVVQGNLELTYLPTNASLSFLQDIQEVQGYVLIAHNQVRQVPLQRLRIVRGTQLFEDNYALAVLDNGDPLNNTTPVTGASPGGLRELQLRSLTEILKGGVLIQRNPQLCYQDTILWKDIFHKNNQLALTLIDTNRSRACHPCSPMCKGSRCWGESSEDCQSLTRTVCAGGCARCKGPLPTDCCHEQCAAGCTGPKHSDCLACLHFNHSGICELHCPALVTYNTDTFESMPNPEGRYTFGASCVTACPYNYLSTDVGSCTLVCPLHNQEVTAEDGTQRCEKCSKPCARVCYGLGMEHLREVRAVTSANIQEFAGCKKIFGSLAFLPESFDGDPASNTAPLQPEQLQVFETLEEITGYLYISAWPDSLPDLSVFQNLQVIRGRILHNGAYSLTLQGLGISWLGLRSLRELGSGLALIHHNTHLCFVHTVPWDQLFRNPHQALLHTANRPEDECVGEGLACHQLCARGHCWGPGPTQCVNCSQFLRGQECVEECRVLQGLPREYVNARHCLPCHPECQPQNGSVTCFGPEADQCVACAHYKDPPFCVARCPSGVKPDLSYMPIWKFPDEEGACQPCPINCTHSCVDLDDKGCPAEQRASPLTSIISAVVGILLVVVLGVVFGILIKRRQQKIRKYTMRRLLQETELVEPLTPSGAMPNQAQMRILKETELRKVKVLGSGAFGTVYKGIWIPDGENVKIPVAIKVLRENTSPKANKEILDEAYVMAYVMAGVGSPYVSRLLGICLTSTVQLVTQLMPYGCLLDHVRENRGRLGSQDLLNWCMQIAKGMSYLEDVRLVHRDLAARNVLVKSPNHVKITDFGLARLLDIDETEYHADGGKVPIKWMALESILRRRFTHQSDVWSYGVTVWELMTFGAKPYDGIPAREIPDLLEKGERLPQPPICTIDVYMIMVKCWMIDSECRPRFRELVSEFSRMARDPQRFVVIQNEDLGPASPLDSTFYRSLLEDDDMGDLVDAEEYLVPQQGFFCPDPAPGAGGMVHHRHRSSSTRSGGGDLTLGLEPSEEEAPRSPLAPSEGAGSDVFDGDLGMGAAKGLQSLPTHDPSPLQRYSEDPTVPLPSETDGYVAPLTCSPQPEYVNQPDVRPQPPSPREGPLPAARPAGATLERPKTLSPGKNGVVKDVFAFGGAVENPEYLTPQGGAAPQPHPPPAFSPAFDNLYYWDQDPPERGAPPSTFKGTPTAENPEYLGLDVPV
Experimental: as §1, §2, §3, §4

Ba/F3 cell naive = test: Ba/F3 cell proliferation suppression, naive; type: cell-based; settings: Mus musculus, BaF3; 72 hours after treatment, CellTiter-Glo
Experimental: as §1, §2, §3, §4

PC9GR = test: Lung cancer cell proliferation suppression, PC9GR; type: cell-based; settings: 72 hours after treatment, CellTiter-Glo
Experimental: as §1, §2, §3, §4

H1975 = test: Lung cancer cell proliferation suppression, H1975; type: cell-based; settings: Homo sapiens, NCI-H1975; 72 hours after treatment, CellTiter-Glo
Experimental: as §1, §2, §3, §4

PC9 = test: Lung cancer cell proliferation suppression, PC9; type: cell-based; settings: Homo sapiens, PC-9; 72 hours after treatment, CellTiter-Glo
Experimental: as §1, §2, §3, §4

[8] = test system: scanMAX kinase panel (EGFR mutant, ERBB2, ERBB4); test: DiscoverX (eurofin) KINOMEscan (scanMAX platform) kinase profiling; type: binding; settings: for suppression activity against the EGFR mutant and ERBB2 and ERBB4: KINOMEscan scanMAX kinase profiling
Source text: It was confirmed that the above example compounds had high selectivity against EGFR series genes. Accordingly, these can be useful in the treating of cancers wherein this kinase is expressed. In particular, as they have substantially outstanding lung cancer cell line proliferation suppression, they can be useful in the treatment of lung cancer, breast cancer, and brain cancer.

Compound	GI50 [1] [µM]	GI50 [2] [µM]	GI50 (Ba/F3 cell EGFR L858R) [µM]	GI50 [3] [µM]	Ba/F3 (NPH) Activity [3]	GI50 [4] [µM]	GI50 [5] [µM]	GI50 [6] [µM]	GI50 [7] [µM]	GI50 (Ba/F3 cell naive) [µM]	GI50 (PC9GR) [nM]	GI50 (H1975) [nM]	GI50 (PC9) [nM]	% inhibition of scanMAX Kinase profiling ([8]; EGFR(E746-A750del)) [%]	% inhibition of scanMAX Kinase profiling ([8]; EGFR(G719C)) [%]	% inhibition of scanMAX Kinase profiling ([8]; EGFR(G719S)) [%]	% inhibition of scanMAX Kinase profiling ([8]; EGFR(L747-E749del, A750P)) [%]	% inhibition of scanMAX Kinase profiling ([8]; EGFR(L747-T751del.Sins)) [%]	% inhibition of scanMAX Kinase profiling ([8]; EGFR(L858R)) [%]	% inhibition of scanMAX Kinase profiling ([8]; EGFR(L858R.T790M)) [%]	other results
C=CC(=O)Nc1cc(Nc2cc(N3OCC[C@@H]3c3cc(F)cc(F)c3)ncn2)c(OC)cc1N1CCC(N2CCN(C3CC3)CC2)CC1 [Example 57]	< 0.05	< 0.05	< 0.05	< 0.05	A (GI50 < 50 nM)	< 0.05	< 0.05	< 0.05	< 0.05	≥ 5	4	1	1	98	100	100	98	100	100	96	% inhibition of scanMAX Kinase profiling ([8]; EGFR(L861q)): 100%; % inhibition of scanMAX Kinase profiling ([8]; EGFR(S752-I759del)): 98%; % inhibition of scanMAX Kinase profiling ([8]; EGFR(T790M)): 100%; % inhibition of scanMAX Kinase profiling ([8]; ERBB2): 100%; % inhibition of scanMAX Kinase profiling ([8]; ERBB4): 100%; suppression activity against the EGFR mutant and ERBB2 and ERBB4 [8]: high suppression activity
C=CC(=O)Nc1cc(Nc2cc(N3OCC[C@@H]3c3cc(F)cc(F)c3)ncn2)c(OC)cc1N1CCC(N2CCN(CC)CC2)CC1 [Example 236, N-(5-((6-((R)-3-(3,5-difluorophenyl)isoxazolidine-2-yl)pyrimidine-4-yl)amino)-2-(4-(4-ethylpiperazine-1-yl)piperidine-1-yl)-4-methoxyphenyl) acrylamide]	< 0.05	< 0.05	< 0.05	< 0.05	A (GI50 < 50 nM)	< 0.05	< 0.05	< 0.05	< 0.05	0.5 to 5	7	1	1	89	100	100	98	100	100	98	% inhibition of scanMAX Kinase profiling ([8]; EGFR(L861q)): 98%; % inhibition of scanMAX Kinase profiling ([8]; EGFR(S752-I759del)): 89%; % inhibition of scanMAX Kinase profiling ([8]; EGFR(T790M)): 100%; % inhibition of scanMAX Kinase profiling ([8]; ERBB2): 100%; % inhibition of scanMAX Kinase profiling ([8]; ERBB4): 100%; suppression activity against the EGFR mutant and ERBB2 and ERBB4 [8]: high suppression activity
C=CC(=O)Nc1cc(Nc2cc(N3OCC[C@@H]3c3cc(F)cc(F)c3)ncn2)c(OC)cc1N1CCC(N2CCOCC2)CC1 [Example 30, N-(5-((6-((R)-3-(3,5-difluorophenyl)isoxazolidine-2-yl)pyrimidine-4-yl)amino)-4-methoxy-2-(4-morpholinopiperidine-1-yl)phenyl) acrylamide]	< 0.05	< 0.05	< 0.05	< 0.05	A (GI50 < 50 nM)	< 0.05	< 0.05	< 0.05	< 0.05	≥ 5	6	1	1	95	100	100	100	96	100	97	% inhibition of scanMAX Kinase profiling ([8]; EGFR(L861q)): 100%; % inhibition of scanMAX Kinase profiling ([8]; EGFR(S752-I759del)): 99%; % inhibition of scanMAX Kinase profiling ([8]; EGFR(T790M)): 100%; % inhibition of scanMAX Kinase profiling ([8]; ERBB2): 100%; % inhibition of scanMAX Kinase profiling ([8]; ERBB4): 100%; suppression activity against the EGFR mutant and ERBB2 and ERBB4 [8]: high suppression activity
C=CC(=O)Nc1cc(Nc2cc(N3OCC[C@@H]3c3cc(F)cc(F)c3)ncn2)c(OC)cc1N1CCC(N2C[C@H]3C[C@@H]2CO3)CC1 [Example 238, N-(2-(4-((1R,4R)-2-oxa-5-azabicyclo[2.2.1]heptane-5-yl)piperidine-1-yl)-5-((6-((R)-3-(3,5-difluorophenyl)isoxazolidine-2-yl)pyrimidine-4-yl)amino)-4-methoxyphenyl) acrylamide]	< 0.05	< 0.05	< 0.05	< 0.05	A (GI50 < 50 nM)	< 0.05	< 0.05	< 0.05	< 0.05	0.5 to 5	4	1	1	100	100	100	91	92	99	98	% inhibition of scanMAX Kinase profiling ([8]; EGFR(L861q)): 98%; % inhibition of scanMAX Kinase profiling ([8]; EGFR(S752-I759del)): 91%; % inhibition of scanMAX Kinase profiling ([8]; EGFR(T790M)): 100%; % inhibition of scanMAX Kinase profiling ([8]; ERBB2): 100%; % inhibition of scanMAX Kinase profiling ([8]; ERBB4): 100%; suppression activity against the EGFR mutant and ERBB2 and ERBB4 [8]: high suppression activity

— patent US12157730B2, “Heteroaryl derivative, method for producing same, and pharmaceutical composition comprising same as effective component” (VORONOI INC., priority 2019, dated 2024)
